Data reported in patent US9873920B2, “Method for evaluating side-effect onset risk in anticancer drug treatment, including detecting MUC4 gene polymorphism” (SAITAMA MEDICAL UNIVERSITY, priority 2013, dated 2018).
Like-named read-outs stand apart in the source and are kept apart here.

Tests used:
[1] = human, in vivo
Source text: It should be noted, of course, that death due to the side effect of drugs is a serious problem also in countries other than Japan, apart from its frequency.

[2] = cited from earlier work
[3] = cited from earlier work; remark: listed apart in the source

Row | Structure (SMILES) | times higher frequency of diffuse alveolar damage in Japanese [1] | frequency of diffuse alveolar damage ([2]; in Japanese) [%] | frequency of diffuse alveolar damage ([2]; surveys on Asians) [%] | frequency of development of ILD in Chinese relative to Japanese ([3]; Chinese versus Japanese) | frequency of development of ILD in Westerners relative to the frequency in Japanese ([3]; Westerners versus Japanese) | frequency of development of interstitial lung disease (ILD) ([3]; in Japanese)
1 | COc1cc2ncnc(Nc3ccc(F)c(Cl)c3)c2cc1OCCCN1CCOCC1 [gefitinib] | not less than 10 times |  |  |  |  | 
2 | C#Cc1cccc(Nc2ncnc3cc(OCCOC)c(OCCOC)cc23)c1 [erlotinib] | not less than 10 times | 2.7 | 0.2 | not more than the frequency of development in Japanese | not more than 1/10 | about 4%
